Test results taken from patent publication US20260165323A1, “USE OF STROBILURIN TYPE COMPOUNDS FOR COMBATING PHYTOPATHOGENIC FUNGI CONTAINING AN AMINO ACID SUBSTITUTION F129L IN THE MITOCHONDRIAL CYTOCHROME B PROTEIN CONFERRING RESISTANCE TO QO […]” (priority 2022, published 2026).

Experiments:
Type in all cases: in vivo
[1] = tested on: Phakopsora pachyrhizi containing the amino acid substitution F129L in the mitochondrial cytochrome b protein; assay: Use Example 1: protective control of soybean rust on soybeans (PHAKPA P2); conditions: inoculated 2 days after spraying, % diseased leaf area
Summary of the method: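 Protective test: plants were inoculated with the F129L cytochrome b rust strain 2 days after spraying to run-off, then held 24 h humid (~95% RH, 20-24° C) and up to 14 days at 23-27° C, 60-80% RH. Readout was visually assessed percent diseased leaf area.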

[2] = tested on: Phakopsora pachyrhizi containing the amino acid substitution F129L in the mitochondrial cytochrome b protein; assay: Use Example 2: protective control of soybean rust on soybeans (PHAKPA P6); conditions: inoculated six days after spraying, % diseased leaf area
Summary of the method: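 Disease was rated visually as % diseased leaf area up to 14 days after inoculation (23–27°C, 60–80% RH). Inoculum was P. pachyrhizi carrying cytochrome b F129L, followed by 24 h in a humid chamber (~95% RH). Inoculation came six days after protective spraying of seedlings with compound in acetone/DMSO–Wettol–water.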

[3] = tested on: Puccinia recondita; assay: Use Example 3: curative control of brown rust on wheat (PUCCRT K4); conditions: % diseased leaf area
Summary of the method: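 Wheat seedlings inoculated with Puccinia recondita spores, held 24 h at 95–99% RH, 20–24° C in dark, then 3 days in greenhouse before spraying to run-off (curative). Compound in acetone/DMSO–Wettol–water. After 5–7 further days at 20–24° C, 65–70% RH, % diseased leaf area scored visually.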

[4] = tested on: Puccinia recondita; assay: Use Example 4: preventative control of brown rust on wheat (PUCCRT P7); conditions: inoculated seven days after spraying, % diseased leaf area
Summary of the method: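 Preventative test: Puccinia recondita spores dusted onto wheat seedlings seven days after spraying their first two leaves to run-off with the formulated compound. After 24 h humid dark incubation at 20–24 °C and 9–11 days of greenhouse growth at 65–70% RH, infection rated visually as % diseased leaf area.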

| SMILES | % PHAKPA (F129L) Disease level P2 at 4 ppm [1] [%] | % PHAKPA (F129L) Disease level P2 at 16 ppm [1] [%] | % PHAKPA (F129L) Disease level P6 at 4 ppm [2] [%] | % PHAKPA (F129L) Disease level P6 at 16 ppm [2] [%] | % PUCCRT Disease level K4 at 4 ppm [3] [%] | % PUCCRT Disease level K4 at 16 ppm [3] [%] | % PUCCRT Disease level P7 at 4 ppm [4] [%] | % PUCCRT Disease level P7 at 16 ppm [4] [%] |
| --- | --- | --- | --- | --- | --- | --- | --- | --- |
| CCOC/C(=N\OCc1c(Cl)cccc1/C(=N\OC)C(=O)OC)c1ccccc1 [compound 53] | 88 | 57 | 93 | 80 | 83 | 78 | 87 | 78 |
| CCOCC(=NOCc1c(Cl)cccc1C(=COC)C(=O)OC)c1ccccc1 [compound 54] | 21 | 1 | 20 | 3 | 77 | 30 | 75 | 27 |
| CCOC/C(=N\OCc1c(Cl)cccc1/C(=N\OC)C(=O)NC)c1ccccc1 [compound 55] | 37 | 1 | 40 | 9 | 77 | 47 | 53 | 29 |
| CO/C=C(/C(=O)OC)c1cccc(Br)c1CO/N=C(\COC)c1ccccc1 [compound 59] | 0 | 0 | 1 | 0 | 11 | 0 | 22 | 0 |
| COC/C(=N\OCc1c(Cl)cccc1/C(=N\OC)C(=O)OC)c1ccc(F)cc1F [compound 62] | 5 | 0 | 6 | 0 | 37 | 2 | 55 | 1 |
| CCOC/C(=N\OCc1c(Br)cccc1/C(=C\OC)C(=O)OC)c1ccc(F)cc1 [compound 66] | 11 | 1 | 13 | 1 | 62 | 8 | 27 | 4 |
| CO/C=C(/C(=O)OC)c1cccc(Cl)c1CO/N=C(\COC)c1cc(F)c(F)c(F)c1 [compound 67] | 10 | 0 | 14 | 0 | 36 | 3 | 4 | 3 |
| CNC(=O)/C(=N/OC)c1cccc(Cl)c1CO/N=C(\COC)c1ccc(Cl)c(Cl)c1 [compound 69] | 43 | 7 | 15 | 1 | 33 | 3 | 7 | 3 |
| CO/C=C(/C(=O)OC)c1cccc(Cl)c1CO/N=C(\COC)c1ccc(Cl)c(Cl)c1 [compound 71] | 31 | 4 | 28 | 7 | 34 | 3 | 4 | 3 |
| CNC(=O)/C(=N/OC)c1cccc(Cl)c1CO/N=C(\COC)c1cc(F)c(F)c(F)c1 [compound 74] | 12 | 2 | 1 | 0 | 37 | 3 | 12 | 3 |
| CO/C=C(/C(=O)OC)c1cccc(Cl)c1CO/N=C(\COC)c1cccc(Cl)c1F [compound 76] | 10 | 1 | 0 | 0 | 41 | 2 | 35 | 3 |
| CO/C=C(/C(=O)OC)c1cccc(Cl)c1CO/N=C(\COC)c1cc(F)cc(F)c1 [compound 80] | 5 | 0 | 0 | 0 | 30 | 0 | 5 | 3 |
| COC/C(=N\OCc1c(Cl)cccc1/C(=N\OC)C(=O)OC)c1c(F)cccc1F [compound 83] | 2 | 0 | 0 | 0 | 37 | 18 | 32 | 12 |
| CNC(=O)/C(=N/OC)c1cccc(Cl)c1CO/N=C(\COC)c1ccc(F)cc1F [compound 84] | 5 | 0 | 2 | 0 | 58 | 9 | 35 | 5 |
| CNC(=O)/C(=N/OC)c1cccc(Cl)c1CO/N=C(\COC)c1cc(F)cc(F)c1 [compound 86] | 17 | 0 | 10 | 0 | 52 | 4 | 19 | 4 |
| CO/C=C(/C(=O)OC)c1cccc(Cl)c1CO/N=C(\COC)c1cccc(F)c1F [compound 87] | 5 | 0 | 2 | 0 | 67 | 10 | 28 | 5 |
| CO/C=C(/C(=O)OC)c1cccc(Cl)c1CO/N=C(\COC)c1ccc(F)c(F)c1 [compound 92] | 0 | 0 | 12 | 0 | 6 | 0 | 3 | 3 |
